What was measured:
[1] = tested on: weeds; assay: Post-emergence test (Example B), activity against weeds; type: in vivo; conditions: test plants 5-15 cm sprayed, rated after three weeks
Description: (§1) Solvent: 5 parts by weight of acetone
(§2) Emulsifier: 1 part by weight of alkylaryl polyglycol ether
(§3) After three weeks, the degree of damage to the plants is rated in % damage in comparison to the development of the untreated control.

[2] = log P determination by HPLC (reversed-phase C18), EEC Directive 79/831 Annex V.A8; type: physicochemical; conditions: reversed-phase C18 HPLC column; pH 2.3; HPLC reversed-phase C18, 43° C.
Protocol: The log P values given in the table were determined in accordance with EEC Directive 79/831 Annex V.A8 by HPLC (High Performance Liquid Chromatography) using a reversed-phase column (C 18). Temperature: 43° C. (a) Mobile phases for the determination in the acidic range: 0.1% aqueous phosphoric acetonitrile; linear gradient from 10% acetonitrile to 90% acetonitrile—the sponding measurement results in Table 1 are marked ^a). (b) Mobile phases for the determination in the neutral range: 0.01 molar aqueous phosphate buffer solution, acetonitrile; linear gradient from 10% acetonitrile to 90% acetonitrile—the corresponding measurement results in Table 1 are marked^b). Calibration was carried out using unbranched alkan-2-ones (with 3 to 16 carbon atoms) with known log P values (determination of the log P values by the retention times using linear interpolation between two successive alkanones).

[3] = tested on: weeds; assay: Pre-emergence test (Example A), activity against weeds; type: in vivo; conditions: soil sprayed 24 hours after sowing, rated after three weeks
Description: as §1, §2
Seeds of the test plants are sown in normal soil.
as §3

chromatographic logP [2] | Compound | activity against weeds (degree of damage) [1] | activity against weeds (degree of damage) [3]
3.34 | COC(=O)c1occc1COc1cc(-n2c(=O)cc(C(F)(F)F)n(C)c2=O)c(F)cc1Br [Example 2, methyl 3-[2-bromo-5-(2,6-dioxo-3-methyl-4-trifluoromethyl-3,6-dihydro-2H-pyrimidin-1-yl)-4-fluorophenoxymethyl]furan-2-carboxylate] | very strong activity against weeds | very strong activity against weeds
3 | COC(=O)c1ccoc1COc1cc(-n2c(=O)cc(C(F)(F)F)n(N)c2=O)c(F)cc1Br [Example 3, methyl 2-[2-bromo-5-(3-amino-2,6-dioxo-4-trifluoromethyl-3,6-dihydro-2H-pyrimidin-1-yl)-4-fluorophenoxymethyl]furan-3-carboxylate] | very strong activity against weeds | very strong activity against weeds
